“Also recorded” adds a separate entry of the source.
Columns and labels:
[1] = tested on: primary human T cells modified with the CDK4 TCR and Zap70-PD1-zinc finger degrons; assay: IMiD regulation of zinc finger degron CRASH-IT switches, CDK4 TCR T cells co-cultured with NKIRTIL006 tumor cells; assay type: cell-based; conditions: for restoration of activity levels (cytokine production, cell surface LAMP-1) by IMiD: IKZF1-based CRASH-IT switch (IKZF1 ZF2-ZF3 degron)
Text: Constructs containing various zinc finger degrons in MP71 Zap70-PD1-Zinc finger IRES-EGFP format were created using IKZF1 ZF2-3 degron containing sequence (Q13422, 141-197 aa), or IKZF3 ZF2-3 degron containing sequence (Q9UKT9, 142-198 aa), or ZFP91 ZF4-5 degron containing sequence (Q96JP5, 396-455 aa), ZNF276 ZF4-5 degron containing sequence (Q8N554, 520-579 aa), ZNF653 ZF4-5 degron containing sequence (Q96CK0, 552-611 aa), or ZNF692 ZF4-5 degron containing sequence (Q9BU19, 413-473 aa). For CRASH-IT switches encoding hybrid zinc finger degrons, the IKZF1 ZF2 beta turn sequence (FQCNQCGASFT) was replaced with beta turn sequences from ZNF653 ZF4 (LQCEICGYQCR), ZFP91 ZF4 (LQCEICGFTCR), ZNF276 ZF4 (LQCEVCGFQCR), or ZNF827 ZF1 (FQCPICGLVIK). For the CRASH-IT switch encoding ZFP91/IKZF1 hybrid zinc finger without IKZF1 ZF3 (single ZF), the IKZF1 ZF3 containing sequence (Q13422, 170-197 aa) was deleted from the Zap70-PD1-ZFP91/IKZF1 hybrid zinc finger (double ZF) construct.
(§1) T cells and NK cells were pretreated with the indicated concentrations of asunaprevir (MedChemExpress, #HY-14434), grazoprevir (MedChemExpress, #HY-15298), dTAG-13 (Tocris, #6605) or DMSO control in T cell media (RPMI/10% human serum/penicillin-streptomycin, 100 IU/ml IL2 and 5 ng/ml IL15) or NK cell media (RPMI/8% FCS/penicillin-streptomycin, 500 IU/ml IL2), respectively, for 24 hours before co-culture experiments. 100,000 T cells or NK cells and 100,000 of indicated tumor cells were mixed in T cell or NK cell media supplemented with golgi-plug (1:1000 dilution, BD, #51-2301KZ) and anti-LAMP1-APC (1:100 dilution, Biolegend, #328620) in the presence of indicated drugs or DMSO control in 96-well plates and incubated for 5 hours at 37° C.
After incubation, cells were washed once with PBS and stained with IR dye (Invitrogen, #L34976) at 1:400 dilution for 5 minutes at 4° C. Subsequently, cells were washed once with FACS buffer (PBS plus 0.5% BSA) and stained with anti-CD8-PerCP Cy5.5 (1:20 dilution, BD, #341050), anti-CD4 BV711 (1:50 dilution, Biolegend, #317440), anti-murine constant TCR-PE (in experiments with transduced TCRs, 1:200 dilution, BD, #553172) or cetuximab-PE (in experiments with transduced CAR construct containing truncated human EGFR reporter, 1:200 dilution, R&D Systems, #FAB9577P) for 20 minutes at 4° C. […]
(§2) Following permeabilization, cells were washed twice with BD perm/wash buffer (#51-2091KZ) and stained with anti-IFNγ-BV421 (1:100 dilution, BD, #564791), anti-IL-2-PE-Cy7 (1:100 dilution, BD, #560707) and anti-TNFα-BV650 (1:100 dilution, Biolegend, #502938) diluted in perm/wash buffer for 20 min at 4° C. Cells were then washed twice, resuspended in 100 μl FACS buffer and analyzed directly on a Fortessa Special Order analyzer. Data were analyzed using FlowJo and Prism 7 software.

[2] = tested on: primary human T cells modified with the HLA class I restricted CDK4 TCR; assay: Cytokine release and degranulation assay, CDK4 TCR T cells co-cultured with CDK4 peptide loaded T2 cells; assay type: cell-based
Procedure: (§3) For use as T cell targets, T2 and CBH 5477 cells were loaded with the indicated concentrations of HLA-A*02:01 restricted mutant CDK4 peptide (ALDPHSGHFV), HLA A*02:01 restricted NY-ESO-1 peptide (SLLMWITQA), or HLA-DR1 restricted CMV peptide (KYQEFFWDANDIYRI) in IMDM for 1 hour at 37° C. Cells were then washed once and used in co-culture experiments.
as §1
After incubation, cells were washed once with PBS and stained with IR dye (Invitrogen, #L34976) at 1:400 dilution for 5 minutes at 4° C. Subsequently, cells were washed once with FACS buffer (PBS plus 0.5% BSA) and stained with anti-CD8-PerCP Cy5.5 (1:20 dilution, BD, #341050), anti-CD4 BV711 (1:50 dilution, Biolegend, #317440), anti-murine constant TCR-PE (in experiments with transduced TCRs, 1:200 dilution, BD, #553172) or cetuximab-PE (in experiments with transduced CAR construct containing truncated human EGFR reporter, 1:200 dilution, R&D Systems, #FAB9577P) for 20 minutes at 4° C. Cells were then washed once with FACS buffer and fixed with BD fixation and permeabilization solution (#51-2090KZ) for 20 minutes at 4° C.
as §2

[3] = tested on: CD8 T cells modified with an NY-ESO-1 shared antigen specific TCR; assay: Cytokine release and degranulation assay, NY-ESO-1 TCR T cells co-cultured with NY-ESO-1 peptide loaded T2 cells; assay type: cell-based, human; conditions: 10 μM asunaprevir
Procedure: as §3
T cells and NK cells were pretreated with the indicated concentrations of asunaprevir (MedChemExpress, #HY-14434), grazoprevir (MedChemExpress, #HY-15298), dTAG-13 (Tocris, #6605) or DMSO control in T cell media (RPMI/10% human serum/penicillin-streptomycin, 100 IU/ml IL2 and 5 ng/ml IL15) or NK cell media (RPMI/8% FCS/penicillin-streptomycin, 500 IU/ml IL2), respectively, for 24 hours before co-culture experiments. […]
as §2

[4] = tested on: anti-CD19-CD28-CD3ζ chain CAR modified human T cells; assay: Cytokine release and degranulation assay, anti-CD19-CD28-CD3ζ CAR T cells co-cultured with Raji or Daudi; assay type: cell-based; conditions: co-culture with CD19 positive Raji or Daudi; 10 μM asunaprevir
Procedure: as §1
(§4) After incubation, cells were washed once with PBS and stained with IR dye (Invitrogen, #L34976) at 1:400 dilution for 5 minutes at 4° C. […]
as §2

[5] = tested on: primary human T cells modified with the CDK4 TCR; assay: Cytokine release and degranulation assay, CDK4 TCR T cells with SMASh or FKBP12^F36V switch co-cultured with NKIRTIL006 tumor cells; assay type: cell-based
Procedure: as §1, §4, §2

[6] = tested on: NK cell line KHYG-1; assay: Cytokine release assay, KHYG-1 NK cells co-cultured with K562 tumor; assay type: cell-based, human; conditions: Zap70-PD1-FKBP12^F36V switch; 0.5 μM dTAG-13
Procedure: Human NK cell line KHYG-1 (DSMZ, Leibniz, Germany) was cultured in RPMI supplemented with 8% FBS and penicillin-streptomycin (100 IU/ml penicillin, 100 μg/ml streptomycin) containing 500 IU/ml IL-2 (Novartis). All cell lines were tested for mycoplasma using PCR based screening (Young et al, Nat Protoc. 2010 May; 5(5):929-34) and found negative.
24-well non treated cell culture plates were covered with 10 μg/ml retronectin (Takara, #T100B) overnight at 4° C. The next day, the retronectin solution was removed and wells were blocked with 2% BSA (Sigma-Aldrich, A9418-500g) in PBS for 30 minutes. […]
as §2

[7] = tested on: NKIRTIL006 tumor cells; assay: 51Cr release cytotoxicity assay; assay type: cell-based, human; conditions: 0.5 μM dTAG-13 vs DMSO
Procedure: Culture media of Zap70-PD1-FKBP^F36V expressing cells is supplemented with 0.5 μM dTAG-13 PROTAC starting one day before cell sorting until 4 days before ^51Cr assay. Primary human T cells modified with the CDK4 TCR plus either the Zap70-PD1-FKBP^F36V switch or IRES-EGFP vector control were sorted on a Beckman Coulter Moflo Astrios using an 80 μM nozzle. Cells were cultured in standard T cell culturing conditions in RPMI/10 human serum/penicillin-streptomycin 100 IU/ml IL-2 and 5 ng/ml IL-15 for 7 days.
After this, cells were expanded using a rapid expansion protocol (REP). […] At day 6, culture media is refreshed with 3000 IU/ml IL-2 containing media and cultures were split into 2 every 3 days with media containing IL-2 (3000 IU/ml final concentration). At day 12, cells were switched to standard T cell culturing conditions (RPMI/10% human serum/penicillin-streptomycin/100 IU/ml IL-2 and 5 ng/ml IL-15) for 3 days, until use in ^51Cr assays.
One day prior to ^51Cr assay, T cells were pretreated with 0.5 μM dTAG-13 PROTAC or DMSO in standard T cell culturing conditions in RPMI/10% human serum/penicillin-streptomycin/100 IU/ml IL-2 and 5 ng/ml IL-15. 5×10^5 tumor cells were resuspended in 100 μl media, mixed gently with 100 ρCi ^51Cr and then incubated at 37° C. for 45 minutes. […]

[8] = Zap70-PD1-SMASh T cells, 10 μM asunaprevir relative to DMSO-treated cells, peptide-loaded target cells (10 nM)

Nc1cccc2c1C(=O)N(C1CCC(=O)NC1=O)C2=O (centres unmarked) [pomalidomide]
restoration of activity levels (cytokine production, cell surface LAMP-1) by IMiD [1]: robustly restored

Nc1cccc2c1CN(C1CCC(=O)NC1=O)C2=O (centres unmarked) [lenalidomide]
restoration of activity levels (cytokine production, cell surface LAMP-1) by IMiD [1]: robustly restored

C=C[C@@H]1C[C@]1(NC(=O)[C@@H]1C[C@@H](Oc2ncc(OC)c3ccc(Cl)cc23)CN1C(=O)[C@@H](NC(=O)OC(C)(C)C)C(C)(C)C)C(=O)NS(=O)(=O)C1CC1 [asunaprevir]
boost of CD8+ T cell activation, IFNγ [2, 8]: 8.8 fold
boost of CD8+ T cell activation, IL2 [2, 8]: 11.5 fold
boost of CD8+ T cell activation, TNFα [2, 8]: 6.3 fold
boost of CD8+ T cell activation, cell surface LAMP1 expression [2, 8]: 6.6 fold
drug effect on inhibition of T cell function by Zap70-PD1-SMASh ([2]; primary human CD8 and CD4 T cells with Zap70-PD1-SMASh): reverted; also recorded: dose dependent recovery
effector functions of Zap70-PD1-SMASh fusion protein-negative T cells (vector control) ([2]; vector control T cells, protease inhibitor): unaltered
functional activity of NY-ESO-1 TCR CD8 T cells with CRASH-IT switch upon drug addition [3]: restored
T cell functions of CAR T cells with Zap70-PD1-SMASh upon drug addition [4]: recovered

CC[C@H](C(=O)N1CCCC[C@H]1C(=O)O[C@H](CCc1ccc(OC)c(OC)c1)c1ccccc1OCC(=O)NCCCCCCOc1cccc2c1C(=O)N(C1CCC(=O)NC1=O)C2=O)c1cc(OC)c(OC)c(OC)c1 (some centres unmarked) [dTAG-13]
reactivation of T cell function at high drug concentrations ([5]; FKBP12^F36V/dTAG-13 based switches, high drug concentrations): suboptimal reactivation of T cell function
concentration at which activation of CRASH-IT platform peaks ([5]; small-molecule titration, Zap70-PD1-FKBP12^F36V (dTAG-13) or Zap70-PD1-SMASh (HCV NS3/4A inhibitors)): around 0.5 μM
suppression of NK cell cytokine production in the presence of drug [6]: reversed
cytotoxic activity of control vector-modified T cells [7]: unaltered
killing of 51Cr loaded NKIRTIL006 tumor cells by sorted CD8 cells with Zap70-PD1-FKBP12^F36V [7]: increased killing

O=C1CCC(N2C(=O)c3ccccc3C2=O)C(=O)N1 (centres unmarked) [thalidomide]
restoration of activity levels (cytokine production, cell surface LAMP-1) by IMiD [1]: lesser
reduction of thalidomide concentration required for the same level of cytokine production (IFNγ, IL-2, or TNFα) or surface LAMP-1 expression ([1]; T cells expressing the chimeric degrons as compared to the parental IKZF1 ZF2-3 degron): around 1,000 fold

— patent US20230151373A1, “CHIMERIC POLYPEPTIDE FOR REGULATING IMMUNE CELLS” (STICHTING HET NEDERLANDS KANKER INSTITUUT-ANTONI VAN …, priority 2019, published 2023)
